# Where “and” joins values, the source holds several entries; their conditions need not be identical. Equal entries are not always repeated. Entries after “also recorded” stand apart in the source; their conditions may differ.
# What was measured:
# [1] = General condition observation (clinical signs) in anterior chamber aqueous humor pressure load rat model; format: in vivo, Rat; Slc: SD; set-up: key: —: No anormal sign; conditions: 1 mg/mL eye drop, right eye, per animal
# Protocol: • Species and strains: Rat; Slc: SD • Number of animals on arrival and sex: 50 males • Age in weeks at arrival: 6 weeks old • Body weight range at arrival: 147.2 to 170.0 g • Source: Japan SLC, Inc.
# The body weight of the animals was measured at a frequency of once a week or more, and the general condition observation was performed every day.
# • Administration route: Eyedrop administration, intravenous administration • Administration method (eyedrop): Eyedrop administration was performed on a treated eye (right eye) of a rat using a micropipette 4 times a day (at intervals of 1.5 hours or more). • Administration method (intravenous): The amount of administration solution, calculated from the body weight on the day of administration, was administered from the tail vein using a syringe and an injection needle about 30 minutes before ischemic load. • Time of administration: Administration was performed according to the following schedule.
# [2] = test system: laser-induced choroidal neovascularization rat model; assay: Laser-induced choroidal neovascularization rat model: CNV area in choroidal flat mount (FITC-dextran); format: in vivo; conditions: for Area of CNV Lesion, Mean: 14 days 4 times a day, N=10; for Area of CNV Lesion, Mean / Individual Value of CNV Area in Each Animal: 14 days after laser
# Protocol: The groups were set as in Table 8 below. Laser irradiation was performed on the right eye in 10 animals in each group. EYLEA (registered trademark) was administered intravitreally into the right eye of individuals in Group 2 immediately after laser irradiation. For the individuals of Groups 1, 3, and 4, eyedrop administration of the administration substances of each group was performed four times a day from the day of laser irradiation to the day before eyeball enucleation.
# Animals to be laser-irradiated were subjected to pupil dilation with Mydorin (registered trademark) P ophthalmic solution, and subjected to general anesthesia by intramuscular injection of a mixed solution of ketamine hydrochloride/xylazine hydrochloride (4:1, v/v) (1 mL/kg) into the thigh muscle. Then, fundus of the right eye was then observed using a slit lamp (SL-130, Carl Zeiss Meditec AG), and laser irradiation was performed at six locations using a green laser photocoagulation device (GYC-500, Nidek Co., Ltd.), avoiding thick capillaries of the retina. The laser conditions were a wavelength of 532 nm (green), a spot size of 50 μm, an irradiation time of 0.1 sec, and a laser irradiation intensity of 300 mW. Except for the individuals to be administered EYLEA (registered trademark), sodium hyaluronate (Hyalein (registered trademark) ophthalmic solution 0.3%, Santen Pharmaceutical Co., Ltd.) as an eye drop for treatment of corneal and conjunctival epithelial disorders was instilled into both eyes after laser irradiation.
# Levofloxacin hydrate (CRAVIT (registered trademark) 1.5% ophthalmic solution, Santen Pharmaceutical Co., Ltd.) as a broad-spectrum antibacterial eye drop and oxybuprocaine hydrochloride (Benoxil (registered trademark) 0.4% ophthalmic solution, Santen Pharmaceutical Co., Ltd.) as an ophthalmic topical anesthetic were once instilled into the right eye of rats in Group 2 (EYLEA (registered trademark) administration group) after end of laser irradiation, and then EYLEA (registered trademark) was intravitreally administered at a dose of 200 μg/5 μL/eye using a 33 G two-stage injection needle and a microsyringe (Ito Manufacturing Co., Ltd.). The microsyringe was washed with D-PBS before administration. Hyalein (registered trademark) ophthalmic solution 0.3% was instilled into both eyes after intravitreal administration.
# Eyedrop administration of the test substance and the negative control administration solution was performed in a volume of 5 μL/eye using a micropipette (Eppendorf Research Plus V, Eppendorf) at the administration period and the number of times determined for each group (see Group constitution table of Item (2)). At that time, since a test substance solution adheres to an outer side of the tip, care was taken so that the adhering test substance solution was wiped off with a Kimwipe once each time of eyedrop administration, and an excessive amount of the test substance solution was not instilled. In addition, although the tip of the pipette tip was sharp, care was taken not to damage the eyeball surface. Immediately before administration, the administration solution was lightly (about several seconds) centrifuged using a small microcentrifuge Wonder Spin, and the supernatant was used for administration.
# Fourteen days after laser irradiation (Day 14), under general anesthesia by intramuscular femoral administration (1 mL/kg) of a ketamine hydrochloride/xylazine hydrochloride (4:1, v/v) mixed solution, a 4% FITC-dextran solution was administered to the tail vein at a dose of 40 mg/l mL/animal.
# After 1 minute from the tail vein administration of the 4% FITC-dextran solution, rats were euthanized by excessive anesthesia by administration of 129.6 mg/mL sodium pentobarbital solution and the right eye ball was enucleated. The enucleated eyeball was fixed in a 4% paraformaldehyde phosphate buffer (FUJIFILM Wako Pure Chemical Corporation, hereinafter referred to as 4% PFA) for 12 to 30 hours at normal temperature. […]
# [3] = Body weight measurement during the CNV rat test; format: in vivo; conditions: for Body Weight (Average): 14 days 4 times a day
# Protocol: The appearance, behavior, and state of excrement or the like were observed every day.
# The body weight was measured on the animal arrival date, the preliminary housing end date (grouping date), the eyedrop administration start date, the laser irradiation date (Day 0), and the eyeball enucleation date (Day 14).
compound,measurement,setting,value
CC[C@@]1(C)Oc2cc(ccc2O)C[C@H](NC)C(=O)N[C@@H](C(C)C)C(=O)N[C@@H]1C(=O)N[C@@H](CC(=O)O)C(=O)O [Compound 9],Clinical signs,"[1]; Day 0, animals 201-210 (test group 2, dosed on the 2 days before model creation)",—
same,Clinical signs,"[1]; Day 0, animals 301-310 (test group 3, dosed 13 days from the day after model creation)",—
same,Clinical signs,"[1]; Day 1, animals 201-210 (test group 2, dosed on the 2 days before model creation)",—
same,Clinical signs,"[1]; Day 1, animals 301-310 (test group 3, dosed 13 days from the day after model creation)",—
same,Clinical signs,"[1]; Day 2, animals 201-210 (test group 2, dosed on the 2 days before model creation)",—
same,Clinical signs,"[1]; Day 2, animals 301-310 (test group 3, dosed 13 days from the day after model creation)",—
same,Clinical signs,"[1]; Day 3, animals 201-210 (test group 2, dosed on the 2 days before model creation)",—
same,Clinical signs,"[1]; Day 3, animals 301-310 (test group 3, dosed 13 days from the day after model creation)",—
same,Clinical signs,"[1]; Day 4, animals 201-210 (test group 2, dosed on the 2 days before model creation)",—
same,Clinical signs,"[1]; Day 4, animals 301-310 (test group 3, dosed 13 days from the day after model creation)",—
same,Clinical signs,"[1]; Day 5, animals 201-210 (test group 2, dosed on the 2 days before model creation)",—
same,Clinical signs,"[1]; Day 5, animals 301-310 (test group 3, dosed 13 days from the day after model creation)",—
same,Clinical signs,"[1]; Day 6, animals 201-210 (test group 2, dosed on the 2 days before model creation)",—
same,Clinical signs,"[1]; Day 6, animals 301-310 (test group 3, dosed 13 days from the day after model creation)",—
same,Clinical signs,"[1]; Day −1, animals 201-210 (test group 2, dosed on the 2 days before model creation)",—
same,Clinical signs,"[1]; Day −1, animals 301-310 (test group 3, dosed 13 days from the day after model creation)",—
same,Clinical signs,"[1]; Day −2, animals 201-210 (test group 2, dosed on the 2 days before model creation)",—
same,Clinical signs,"[1]; Day −2, animals 301-310 (test group 3, dosed 13 days from the day after model creation)",—
same,"Area of CNV Lesion, Mean","[2]; Group 3, eye drop 5 μg/5 μL/eye (1 mg/mL)",471160.8 pixel
same,Individual Value of CNV Area in Each Animal,"[2]; Group 3 individual animals, eye drop 5 μg/5 μL/eye",330375.8 pixel and 515551.8 pixel and 492136.5 pixel and 558285.0 pixel and 496494.0 pixel and 466828.5 pixel and 460996.3 pixel and 460127.0 pixel and 449544.0 pixel and 481268.8 pixel
same,"Area of CNV Lesion, Mean","[2]; Group 4, eye drop 50 μg/5 μL/eye (10 mg/mL)",444173.4 pixel
same,Individual Value of CNV Area in Each Animal,"[2]; Group 4 individual animals, eye drop 50 μg/5 μL/eye",313878.7 pixel and 591175.3 pixel and 382504.5 pixel and 527509.5 pixel and 426003.0 pixel and 447473.0 pixel and 394615.5 pixel and 494652.3 pixel and 438691.5 pixel and 425230.3 pixel
same,"CNV area compared with Group 1 (saline) / drug efficacy, in words","[2]; eyedrop 1 mg/mL (Group 3) and 10 mg/mL (Group 4), Dunnett's test",no significant difference in CNV area was observed; also recorded: no drug efficacy on CNV area was observed
same,"Dose dependence of CNV area reduction, in words","[2]; eyedrop 1 mg/mL and 10 mg/mL, 4 times/day for 14 days",reduction in CNV area correlated with the eyedrop administration dose was confirmed
same,Body Weight (Average),"[3]; Group 3, eye drop 5 μg/5 μL/eye, Day 0 (Laser injection)",152.66 g
same,Body Weight (Average),"[3]; Group 3, eye drop 5 μg/5 μL/eye, Day 14 (Enucleation)",184.36 g
same,Body Weight (Average),"[3]; Group 3, eye drop 5 μg/5 μL/eye, Day −3 or Day −2 (Grouping)",141.80 g
same,Weight (g) (Individual),"[3]; Group 3 individual animals, eye drop 5 μg/5 μL/eye, Enucleation (Day 14)",187.51 g and 200.36 g and 188.53 g and 178.12 g and 191.73 g and 185.42 g and 178.06 g and 179.74 g and 187.00 g and 167.09 g
same,Weight (g) (Individual),"[3]; Group 3 individual animals, eye drop 5 μg/5 μL/eye, Grouping (Day −3 or −2)",142.67 g and 150.51 g and 144.41 g and 133.08 g and 140.65 g and 139.40 g and 138.22 g and 145.52 g and 148.31 g and 135.25 g
same,Weight (g) (Individual),"[3]; Group 3 individual animals, eye drop 5 μg/5 μL/eye, Laser injection (Day 0)",156.06 g and 160.40 g and 156.65 g and 141.07 g and 149.62 g and 153.89 g and 146.49 g and 158.03 g and 159.18 g and 145.16 g
same,Body Weight (Average),"[3]; Group 4, eye drop 50 μg/5 μL/eye, Day 0 (Laser injection)",152.84 g
same,Body Weight (Average),"[3]; Group 4, eye drop 50 μg/5 μL/eye, Day 14 (Enucleation)",186.10 g
same,Body Weight (Average),"[3]; Group 4, eye drop 50 μg/5 μL/eye, Day −3 or Day −2 (Grouping)",141.65 g
same,Weight (g) (Individual),"[3]; Group 4 individual animals, eye drop 50 μg/5 μL/eye, Enucleation (Day 14)",171.86 g and 175.04 g and 182.32 g and 197.31 g and 192.55 g and 179.90 g and 198.77 g and 183.99 g and 193.77 g and 185.47 g
same,Weight (g) (Individual),"[3]; Group 4 individual animals, eye drop 50 μg/5 μL/eye, Grouping (Day −3 or −2)",133.40 g and 133.47 g and 138.61 g and 149.89 g and 142.02 g and 140.70 g and 144.50 g and 145.24 g and 149.29 g and 139.35 g
same,Weight (g) (Individual),"[3]; Group 4 individual animals, eye drop 50 μg/5 μL/eye, Laser injection (Day 0)",140.92 g and 141.64 g and 146.31 g and 156.67 g and 152.34 g and 152.92 g and 159.45 g and 160.10 g and 163.58 g and 154.47 g

# — patent publication US20260091082A1, “CYCLIC PEPTIDE DERIVATIVE COMPOSITION FOR TREATING OR PREVENTING EYE DISEASE” (DKS Co. Ltd., priority 2022, published 2026)
